# Measurements published in ChEMBL document CHEMBL1201862, “PubChem BioAssay data set” (2004).
# Activity calls are given as the source filed them.
# What was measured:
# [1] = system: Streptococcus sp. 'group A'; assay: growth inhibition of control SK(-) GAS strain, dose response, counter-screen for streptokinase expression inhibitor project, luminescence, kanamycin, BacTiterGlo, confirmation (AID 1900); format: functional, organism-based
# [2] = inhibitors of intracellular T. cruzi replication, confirmation, NIH3T3 host cells, beta-gal luminescence (AID 2044); format: functional, cell-based;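 further: intracellular parasites grown in NIH/3T3 mouse fibroblasts as host cells; luminescent beta-galactosidase reporter signal from transgenic T. cruzi replicating inside host cells; inhibitors lower the luminescence signal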
# [3] = cytotoxicity toward NIH3T3 fibroblasts, dose response, counter-screen, cell-based, ATP luminescence, mouse fibroblasts (AID 2010); format: functional;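 further: cells exposed to compound for about 90 hours before reading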
# Streptococcus = assay: Group A Streptococcus viability loss, dose response, counter-screen for streptokinase expression inhibitor project, luminescence, BacTiterGlo (AID 1915); format: functional, organism-based;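 further: potency for reduction of bacterial viability or growth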
# [4] = HepG2 cell cytotoxicity, dose response, cytotoxicity control, ATP luminescence, cherry-pick, activator set 2 (AID 1053143); format: functional, cell-based
# [5] = molecular target: Luciferin 4-monooxygenase (Photinus pyralis, UniProt P08659); assay: Counter Screen for Luciferase-based Assay Positives. [Related pubchem assays: 620, 618, 411 ]
# Luciferin 4-monooxygenase, sequence (P08659 whole entry): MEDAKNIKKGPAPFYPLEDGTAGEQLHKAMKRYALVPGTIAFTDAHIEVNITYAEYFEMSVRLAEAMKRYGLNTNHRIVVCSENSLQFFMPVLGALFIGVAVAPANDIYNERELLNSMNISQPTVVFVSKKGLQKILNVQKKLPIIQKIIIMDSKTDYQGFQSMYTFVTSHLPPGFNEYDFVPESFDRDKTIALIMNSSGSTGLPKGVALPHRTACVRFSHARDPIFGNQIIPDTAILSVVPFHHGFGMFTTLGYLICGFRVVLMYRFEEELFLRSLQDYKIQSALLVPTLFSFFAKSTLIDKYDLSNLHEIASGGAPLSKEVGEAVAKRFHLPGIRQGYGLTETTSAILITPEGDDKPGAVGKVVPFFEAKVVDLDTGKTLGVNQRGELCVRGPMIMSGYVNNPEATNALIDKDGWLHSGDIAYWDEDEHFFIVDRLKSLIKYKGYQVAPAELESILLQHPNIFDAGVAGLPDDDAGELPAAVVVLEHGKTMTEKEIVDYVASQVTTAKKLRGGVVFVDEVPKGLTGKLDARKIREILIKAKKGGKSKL
# HT-1080 = assay: cytotoxicity in HT1080 fibrosarcoma cells, cell-based, fluorescence readout (AID 620); format: functional; conditions: Homo sapiens
# cells = format: functional, cell-based
# [6] = molecular target: T1, Nuclear receptor subfamily 0 group B member 1 (Homo sapiens, UniProt P51843); format: functional, cell-based;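 further: HEK293T cells transfected with SF-1 and DAX-1 plus StAR promoter luciferase reporter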
# T1 sequence (P51843 whole entry): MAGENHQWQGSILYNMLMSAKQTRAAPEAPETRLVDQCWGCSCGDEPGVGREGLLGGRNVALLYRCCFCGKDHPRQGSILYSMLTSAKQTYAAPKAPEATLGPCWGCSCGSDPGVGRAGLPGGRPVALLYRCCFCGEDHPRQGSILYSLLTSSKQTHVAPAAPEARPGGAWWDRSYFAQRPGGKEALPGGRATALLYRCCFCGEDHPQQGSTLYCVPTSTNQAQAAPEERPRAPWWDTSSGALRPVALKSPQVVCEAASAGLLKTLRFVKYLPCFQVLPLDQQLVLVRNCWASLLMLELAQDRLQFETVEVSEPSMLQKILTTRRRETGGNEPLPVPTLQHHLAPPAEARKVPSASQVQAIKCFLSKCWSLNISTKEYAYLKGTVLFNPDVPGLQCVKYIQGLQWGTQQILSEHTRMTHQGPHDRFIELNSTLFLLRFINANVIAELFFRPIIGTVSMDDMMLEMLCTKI
# [7] = A549 cell cytotoxicity, dose response, cytotoxicity control, plate reader, cherry-pick, antagonist series (AID 743412); format: functional, cell-based
# [8] = HepG2 cell cytotoxicity, dose response, cytotoxicity control, plate reader, cherry-pick, antagonist series (AID 743416); format: functional, cell-based
# [9] = LGR2 antagonists, dose response, cell-based, HEK293, CRE-luciferase reporter, cherry pick, set 2 (AID 743343); format: functional;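 further: transfected cells were stimulated with diluted bursicon conditioned medium after compound addition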
# [10] = MC4R antagonists, dose response, counter-screen for LGR2 antagonist project, cell-based, plate reader, cherry pick (AID 743444); format: functional;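 further: transfected HEK 293 cells stimulated with alpha-MSH peptide; potency of inhibitors of the alpha-MSH evoked signal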
# [11] = Luminescence Cell-Based Dose Response to Identify Activators of 5'UTR Stem-Loop Driven Prion Protein mRNA Translation in H4-C Neuroglioblastoma Cells. [Related pubchem assays: 1829 (Project Summary), 1814 (Primary HTS)]; format: functional
# [12] = Luminescence Cell-Based Dose Response HTS to Identify Activators of Luciferase Translation or Activity in H4 […] Cells. [Related pubchem assays: 1829 (Project Summary), 1814 (Primary HTS)]; format: functional
# [13] = Luminescence Cell-Based Dose Response to Identify Activators of Luciferase Translation or Activity in H4-C Neuroglioblastoma Cells. [Related pubchem assays: 1829 (Project Summary), 1814 (Primary HTS)]; format: functional
# [14] = Luminescence Cell-Based Dose Confirmation to Identify Activators of 5'UTR Stem-Loop Driven Alpha-Synuclein mRNA Translation in H4 Neuroglioblastoma Cells. [Related pubchem assays: 1829 (Project Summary), 1814 (Primary HTS)]; format: functional
# [15] = inhibitors of non-replicating M. tuberculosis, dose response, luciferase, dry powder (AID 651619); format: functional; conditions: Mycobacterium tuberculosis
# [16] = HEK293T cell cytotoxicity, dose response, cytotoxicity control, CellTiter-Glo luminescence, dry powder, set 6 (AID 651949); format: functional, cell-based; conditions: HEK293
# [17] = inhibitors of non-replicating M. tuberculosis, dose response, luciferase, dry powder (AID 651620); format: functional; conditions: Mycobacterium tuberculosis
# [18] = growth inhibition of replicating M. tuberculosis, dose response, counter-screen, dry powder, IC90 (AID 651617); format: functional; conditions: Mycobacterium tuberculosis
# Cytochrome P450 2C9 = Cytochrome P450 2C9 (Homo sapiens, UniProt P11712)
# Cytochrome P450 2C9, sequence (P11712 whole entry): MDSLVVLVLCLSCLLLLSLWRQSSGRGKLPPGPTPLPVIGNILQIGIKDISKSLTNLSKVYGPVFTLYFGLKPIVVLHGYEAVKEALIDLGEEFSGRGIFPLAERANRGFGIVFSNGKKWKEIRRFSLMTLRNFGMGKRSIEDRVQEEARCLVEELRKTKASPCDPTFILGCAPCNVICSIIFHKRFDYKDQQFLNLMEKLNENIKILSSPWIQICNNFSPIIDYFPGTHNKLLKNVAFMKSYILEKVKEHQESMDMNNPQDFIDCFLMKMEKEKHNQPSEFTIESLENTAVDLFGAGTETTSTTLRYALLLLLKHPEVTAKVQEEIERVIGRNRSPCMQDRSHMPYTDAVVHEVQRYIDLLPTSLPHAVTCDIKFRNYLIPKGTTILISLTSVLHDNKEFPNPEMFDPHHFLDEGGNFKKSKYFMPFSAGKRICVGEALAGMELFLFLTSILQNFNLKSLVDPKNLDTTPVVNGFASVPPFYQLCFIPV
# [19] = molecular target: Potassium channel subfamily K member 9 (Homo sapiens, UniProt Q9NPC2); assay: TASK3 (KCNK9) channel inhibitors, thallium flux, SAR follow-up, selectivity assay for TASK1 inhibitor project, cell-based, FluxOR thallium flux, concentration-response (AID 652211); format: functional;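 further: potency is for inhibitors of the channel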
# Potassium channel subfamily K member 9, sequence (Q9NPC2 whole entry): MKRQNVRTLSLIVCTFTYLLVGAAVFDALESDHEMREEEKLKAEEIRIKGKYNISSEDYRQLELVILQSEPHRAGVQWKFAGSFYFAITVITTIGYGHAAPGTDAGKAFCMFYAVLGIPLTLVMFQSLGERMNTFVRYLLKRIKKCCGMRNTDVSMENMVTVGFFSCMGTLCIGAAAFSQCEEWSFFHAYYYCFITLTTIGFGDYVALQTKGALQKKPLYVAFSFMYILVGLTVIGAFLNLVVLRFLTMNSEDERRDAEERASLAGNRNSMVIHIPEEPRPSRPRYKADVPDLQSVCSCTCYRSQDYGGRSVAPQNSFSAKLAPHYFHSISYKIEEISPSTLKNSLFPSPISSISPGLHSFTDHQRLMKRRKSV
# [20] = molecular target: Potassium channel subfamily K member 3 (Homo sapiens, UniProt O14649); assay: TASK1 (KCNK3) potassium channel inhibitors, SAR follow-up, CHO cells, FluxOR thallium flux (AID 652212); format: functional
# Potassium channel subfamily K member 3, sequence (O14649 whole entry): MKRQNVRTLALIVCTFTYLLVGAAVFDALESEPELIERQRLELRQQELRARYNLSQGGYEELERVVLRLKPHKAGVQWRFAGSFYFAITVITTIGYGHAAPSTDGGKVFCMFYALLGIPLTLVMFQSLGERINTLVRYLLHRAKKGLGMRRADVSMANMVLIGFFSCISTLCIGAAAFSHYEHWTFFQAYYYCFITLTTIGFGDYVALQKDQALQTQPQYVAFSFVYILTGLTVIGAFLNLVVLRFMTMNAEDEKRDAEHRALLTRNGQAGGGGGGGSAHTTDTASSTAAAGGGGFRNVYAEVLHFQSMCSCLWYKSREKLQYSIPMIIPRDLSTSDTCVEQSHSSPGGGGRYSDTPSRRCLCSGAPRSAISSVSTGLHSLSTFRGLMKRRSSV
# [21] = molecular target: Fructose-bisphosphate aldolase (Mycobacterium tuberculosis, UniProt P9WQA3); assay: Fluorescence-based biochemical high throughput dose response assay for inhibitors of the fructose-bisphosphate aldolase (FBA) of M. tuberculosis.; format: functional
# Fructose-bisphosphate aldolase, sequence (P9WQA3 whole entry): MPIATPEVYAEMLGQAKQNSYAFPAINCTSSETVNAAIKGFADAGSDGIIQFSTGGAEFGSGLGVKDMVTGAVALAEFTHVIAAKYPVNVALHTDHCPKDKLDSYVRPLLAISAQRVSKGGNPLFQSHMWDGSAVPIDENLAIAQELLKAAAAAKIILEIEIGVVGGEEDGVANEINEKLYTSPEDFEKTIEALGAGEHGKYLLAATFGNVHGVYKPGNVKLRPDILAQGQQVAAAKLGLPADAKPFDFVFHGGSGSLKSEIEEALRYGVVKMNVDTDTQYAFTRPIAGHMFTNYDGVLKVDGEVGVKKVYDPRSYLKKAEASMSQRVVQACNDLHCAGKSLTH
# [22] = molecular target: COUP transcription factor 2 (Homo sapiens, UniProt P24468); assay: Luminescence-based cell-based high throughput dose response assay to identify inhibitors of COUP-TFII (NR2F2).; format: functional;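 further: HEK293 cells transiently cotransfected with COUP-TFII expression vector and reporter; luciferase reporter luminescence driven by COUP-TFII from the pX2-168 reporter plasmid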
# COUP transcription factor 2, sequence (P24468 whole entry): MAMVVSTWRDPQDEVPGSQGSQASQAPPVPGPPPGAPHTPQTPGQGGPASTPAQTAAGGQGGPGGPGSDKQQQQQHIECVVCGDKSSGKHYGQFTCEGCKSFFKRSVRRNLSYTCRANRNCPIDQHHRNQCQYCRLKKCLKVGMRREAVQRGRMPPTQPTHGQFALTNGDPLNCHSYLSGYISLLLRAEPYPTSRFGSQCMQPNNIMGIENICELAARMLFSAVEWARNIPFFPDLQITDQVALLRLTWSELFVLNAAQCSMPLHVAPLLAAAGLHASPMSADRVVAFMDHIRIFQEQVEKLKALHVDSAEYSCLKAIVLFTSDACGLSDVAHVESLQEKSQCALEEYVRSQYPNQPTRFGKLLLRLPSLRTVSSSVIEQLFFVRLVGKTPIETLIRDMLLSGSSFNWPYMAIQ
# HeLa = assay: HeLa cell cytotoxicity, dose response, cytotoxicity control, ATP luminescence, cherry-pick samples (AID 687004); format: functional, cell-based; conditions: Homo sapiens
# [23] = HEK293T cytotoxicity, dose response, cytotoxicity control for miR-122 modulator project, cell-based, inhibitor set, cherry-pick, set 2 (AID 720697); format: functional
# Paired box protein Pax-8 = Paired box protein Pax-8 (Homo sapiens, UniProt Q06710); assay: inhibitors of PAX8-driven TPO luciferase reporter, dose response, RMG-I cells, cherry-pick (AID 687027); format: functional, cell-based;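 further: luciferase reporter driven by Pax8 target thyroperoxidase promoter measured by SteadyGlo luminescence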
# Paired box protein Pax-8, sequence (Q06710 whole entry): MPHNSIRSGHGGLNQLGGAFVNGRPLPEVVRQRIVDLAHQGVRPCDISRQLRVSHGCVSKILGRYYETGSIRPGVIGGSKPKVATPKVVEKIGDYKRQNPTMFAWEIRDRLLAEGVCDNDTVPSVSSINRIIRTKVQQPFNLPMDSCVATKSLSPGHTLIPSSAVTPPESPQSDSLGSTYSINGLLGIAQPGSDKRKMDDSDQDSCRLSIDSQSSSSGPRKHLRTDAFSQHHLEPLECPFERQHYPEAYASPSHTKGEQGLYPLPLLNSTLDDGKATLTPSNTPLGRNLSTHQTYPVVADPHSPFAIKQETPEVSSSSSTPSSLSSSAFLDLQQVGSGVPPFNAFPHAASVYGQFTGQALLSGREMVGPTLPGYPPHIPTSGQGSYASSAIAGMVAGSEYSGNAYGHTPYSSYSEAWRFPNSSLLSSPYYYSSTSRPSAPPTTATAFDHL
# [24] = IOSE-T80 ovarian epithelial cell cytotoxicity, dose response, cytotoxicity control for PAX8 inhibitor project, plate reader, dry powder samples (AID 743045); format: functional, cell-based
# [25] = inhibitors of PGC1a acetylation in cells, dose response, cell-based, cherry-picked samples (AID 720514); format: functional;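 further: potency may reflect raised or lowered acetylation signal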
# [26] = NIH:OVCAR-3 ovarian cancer cell cytotoxicity, dose response, PAX8 inhibitor project, plate reader, dry powder samples (AID 743044); format: functional, cell-based
# [27] = non-specific cell cytotoxicity, dose response, cytotoxicity control for PAX8 inhibitor project, plate reader, dry powder samples (AID 743021); format: functional, cell-based
# [28] = cytotoxicity in OVCAR8 ovarian cancer cells, dose response, PAX8 project, cell-based, plate reader, dry powder samples (AID 743197); format: functional; conditions: OVCAR-8
# [29] = A2780 ovarian cancer cell cytotoxicity, dose response, cytotoxicity control, plate reader, dry powder samples (AID 743046); format: functional, cell-based
# [30] = inhibitors of CMV-promoter luciferase reporter, dose response, counter-screen for Pax8 inhibitor project, cell-based, HEK293, luminescence, dry powder (AID 743020); format: functional
# [31] = Late stage assay provider results from the probe development effort to identify inhibitors of the Plasmodium falciparum M18 Aspartyl Aminopeptidase (M18AAP): radiolabel-based cell-based dose response assay to identify compounds that inhibit P. falciparum growth in RBCs, Set 2..; format: functional
# [32] = A549 cell cytotoxicity, dose response, cytotoxicity control, 24 h, CellTiter-Glo luminescence, cherry-picks (AID 1053115); format: functional, cell-based; conditions: A549, 24 h
# [33] = cytotoxicity in HepG2 cells, dose response, cytotoxicity control, cell-based, plate reader, dry powder (AID 651947); format: functional
# [34] = molecular target: Kappa-type opioid receptor (Homo sapiens, UniProt P41145); assay: OPRK1 antagonists, late-stage follow-up, cell-based, fluorescence, dose response (AID 652032); format: functional
# Kappa-type opioid receptor, sequence (P41145 whole entry): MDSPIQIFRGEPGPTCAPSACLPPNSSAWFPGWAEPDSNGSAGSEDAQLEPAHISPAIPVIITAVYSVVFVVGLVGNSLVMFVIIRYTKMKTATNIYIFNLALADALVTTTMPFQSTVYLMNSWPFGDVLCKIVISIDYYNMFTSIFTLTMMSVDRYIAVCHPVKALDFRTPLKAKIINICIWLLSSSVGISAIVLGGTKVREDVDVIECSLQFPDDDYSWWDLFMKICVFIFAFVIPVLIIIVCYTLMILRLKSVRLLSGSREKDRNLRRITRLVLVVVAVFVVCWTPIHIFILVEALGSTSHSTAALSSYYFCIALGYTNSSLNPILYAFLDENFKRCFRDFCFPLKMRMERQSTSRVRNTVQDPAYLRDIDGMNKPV
# NS3 = NS3 (Hepatitis C virus, UniProt A3EZJ3); assay: HCV NS3 helicase inhibitor potency, dose response, biochemical, fluorescence polarization, ChemBridge library (AID 743264)
# NS3, sequence (A3EZJ3 whole entry): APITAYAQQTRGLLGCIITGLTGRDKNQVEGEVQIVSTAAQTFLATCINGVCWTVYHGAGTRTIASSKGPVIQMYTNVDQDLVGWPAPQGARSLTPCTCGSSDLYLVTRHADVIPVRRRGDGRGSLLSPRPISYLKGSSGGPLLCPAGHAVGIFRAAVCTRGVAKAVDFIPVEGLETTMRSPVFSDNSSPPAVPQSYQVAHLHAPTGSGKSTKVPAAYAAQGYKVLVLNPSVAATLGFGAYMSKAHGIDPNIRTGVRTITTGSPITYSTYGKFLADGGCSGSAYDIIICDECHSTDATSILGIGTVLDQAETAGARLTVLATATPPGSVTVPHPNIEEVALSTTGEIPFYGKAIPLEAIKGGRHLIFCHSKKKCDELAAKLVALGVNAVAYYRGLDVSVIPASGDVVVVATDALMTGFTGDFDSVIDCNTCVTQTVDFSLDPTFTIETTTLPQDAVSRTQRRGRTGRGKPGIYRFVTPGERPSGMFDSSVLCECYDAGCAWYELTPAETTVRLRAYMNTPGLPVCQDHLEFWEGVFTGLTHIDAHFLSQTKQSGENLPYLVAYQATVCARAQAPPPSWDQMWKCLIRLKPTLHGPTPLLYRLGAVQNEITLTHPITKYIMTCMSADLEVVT
# [35] = HepG2 cell cytotoxicity, dose response, cytotoxicity control, cherry-picks, set 5 (AID 1053118); format: functional, cell-based
# [36] = HEK293 cell cytotoxicity, dose response, cytotoxicity control, cherry-picks, set 5 (AID 1053117); format: functional, cell-based
# [37] = A375 melanoma cell viability loss, dose response, counter-screen for MITF inhibitor project, CellTiter-Glo luminescence, dry powder, set 4 (AID 624364); format: functional, cell-based; conditions: A-375;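 further: A375 melanoma cells are MITF independent so this is a counter screen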
# [38] = A375 melanoma cell cytotoxicity, dose response, counter-screen for MITF inhibitor project, CellTiter-Glo luminescence, dry powder, set 2 (AID 624489); format: functional, cell-based; conditions: A-375;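 further: actives are compounds lowering A375 viability meaning general cytotoxicity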
compound,measurement,setting,value
CCOc1ccc2c(c1)C(=NNC(=O)c1ccncc1)c1cc(OCC)ccc1-2,EC50,[1],894 nM (active)
same,EC50,[2],825 nM (active)
same,EC50,[3],> 60 µM (inconclusive)
same,EC50,Streptococcus,3.66 µM (active)
same,AC50,[4],26 µM (active)
COc1ccc(C(=O)Nc2nnc(-c3ccco3)s2)cc1,EC50,[5],> 100 µM (not active)
same,EC50,HT-1080,> 50 µM (not active)
same,IC50,cells,> 67.5 µM (inactive)
same,IC50,[6],> 67.5 µM (inactive)
same,AC50,[7],> 52 µM (inactive)
same,AC50,[8],> 52 µM (inactive)
same,AC50,[9],3.75 µM (active)
same,AC50,[10],3.67 µM (active)
c1ccc(-c2nnc(SCCC3OCCCO3)o2)cc1,EC50,[11],1.55 µM (active)
same,EC50,[12],936 nM (active)
same,EC50,[13],852 nM (active)
same,EC50,[14],604 nM (active)
same,IC90,[15],8 µM (active)
same,AC50,[16],> 52 µM (inactive)
same,IC90,[17],8 µM (active)
same,IC90,[18],62 µM (active)
same,AC50,Cytochrome P450 2C9,inconclusive
O=C(Nc1ccccc1Cl)c1cccc(NC(=O)C2CCCC2)c1,IC50,[19],5.78 µM (active)
same,IC50,[20],202 nM (active)
CCCc1cc(=O)oc2cc(OCc3ccc(C(=O)O)o3)ccc12,IC50,[21],2.44 µM (active)
Cc1c(C(=O)C2=C(O)C(=O)N(CCN3CCOCC3)C2c2ccco2)cnn1-c1ccccc1 (stereo unspecified),IC50,[22],21.1 µM (inactive)
COc1ccc(C2=Nc3ccccc3NC(=O)C2N(C(=O)c2cc3ccccc3[nH]2)c2ccccc2)cc1 (stereo unspecified),AC50,HeLa,> 52 µM (inactive)
Cc1ccc(-c2ccc3c(c2)O[C@H](CN(C)C(=O)CC2CC2)[C@H](C)CN([C@@H](C)CO)S3(=O)=O)cc1,AC50,[23],10.4 µM (active)
Fc1cccc(CN2C[C@@H]3N[C@H](C2)[C@@H]3c2ccc(-c3cccc(F)c3)cc2)c1,AC50,Paired box protein Pax-8,23.4 µM (active)
same,AC50,[24],27.6 µM (active)
same,AC50,[25],4.43 µM (active)
same,AC50,[26],22.1 µM (active)
same,AC50,[27],19.5 µM (active)
same,AC50,[28],27 µM (active)
Cc1ccc(S(=O)(=O)Nc2ccc3c(c2)C(=O)N([C@H](C)CO)C[C@@H](C)[C@H](CN(C)S(=O)(=O)c2ccccc2)OCCCC[C@H](C)O3)cc1,AC50,Paired box protein Pax-8,8.05 µM (active)
same,AC50,[29],29.5 µM (active)
same,AC50,[28],> 70 µM (inactive)
COc1ccc(S(=O)(=O)Nc2ccc3c(c2)CC(=O)N([C@H](C)CO)C[C@H](C)[C@@H](CN(C)Cc2ccc(C(F)(F)F)cc2)O3)cc1,AC50,Paired box protein Pax-8,19.3 µM (active)
same,AC50,[30],49.3 µM (active)
same,AC50,[28],> 70 µM (inactive)
Oc1ccc(CCNC(c2ccccc2)c2ccccc2)cc1O,IC50,[31],17 µM (inactive)
C[C@@H]1CCCCO[C@@H](CN(C)S(=O)(=O)c2ccc(Cl)cc2)[C@@H](C)CN([C@@H](C)CO)C(=O)c2cc(NC(=O)Nc3ccc(F)cc3)ccc2O1,AC50,[32],51.4 µM (active)
Fc1ccc(Cn2cc(CSc3nnc(-c4ccc(F)cc4)o3)nn2)cc1,IC90,[15],1 µM (active)
same,AC50,[33],30.8 µM (active)
same,IC90,[17],1 µM (active)
COC(=O)c1cc(Br)cnc1N1CCC(N)CC1,IC50,[34],21.8 µM (inactive)
Cc1c(C(=O)O)cccc1-n1c(C)ccc1C,IC50,NS3,34.5 µM (inactive)
CO[C@@H]1CN(C)C(=O)c2cc(NC(=O)Nc3cc(Cl)cc(Cl)c3)ccc2OC[C@@H](C)NC[C@@H]1C,AC50,[35],23.8 µM (active)
same,AC50,[36],36.7 µM (active)
COc1ccc(C(=O)NC2=C(c3ccc(OC)cc3)C(=O)c3ccccc3C2=O)cc1,AC50,[37],20.1 µM (active)
same,AC50,[38],13.3 µM (active)
